{
  "source": "patent US11197859B2",
  "about": "(AUTIFONY THERAPEUTICS LIMITED, priority 2010, dated 2021)",
  "key": {"Male CD rats": {"tested_on": "Male CD rats", "assay": "Electroshock seizure model in rats", "type": "in vivo, rat", "settings": "2 hours before test", "method": "Male CD rats (85-130 g) were supplied by Charles River, Italy.\nTesting involved determining the threshold for tonic hindlimb extensor seizures using a Hugo Sachs Electronik stimulator which delivers a constant current of 0.3 second duration, 50 Hz, sinewave form, fully adjustable between 1 and 300 mA. Stimuli were delivered via corneal electrodes (Stean T O, Atkins A R, Heidbreder C A, Quinn L P, Trail B K, Upton N. (2005) Br J Pharmacol. 144(5):628-35). Seizure threshold was determined using the ‘up and down’ method of Kimball et al. (1957)(Kimball A W, Burnett W T Jr, Doherty D G. (1957) Radiat Res. 7(1):1-12). The first animal tested in each group was stimulated with a current that might be expected to be close to the threshold for induction of a seizure. If a tonic seizure was not induced, then the next animal in the group received a stimulus 5 mA higher. If a tonic seizure was induced, then the next animal received a stimulus 5 mA lower. This is repeated for all animals within the control (vehicle) group. In the case of groups treated with a test compound steps of 5 to 10 mA were used. At the end of the study, blood samples were taken for analysis of the drug concentrations in this compartment (n=4/group).\nAll doses were calculated as base. Sodium valproate was suspended in Methocell 1% (w/v) and dosed via the oral (p.o.) route at 5 mL/kg 1 hour before test. Reference Example RE1 was dissolved in DMSO and then suspended in Methocell 1% (w/v) to a final DMSO concentration of 5% (v/v). Reference Example RE1 was then dosed p.o. at 5 mL/kg 2 hours before test.\nInduction of seizure is measured as an all-or-nothing effect scored as either present (+) or absent (0) for each animal. […] Drug effects were calculated as the % change in CC50. Significant differences between drug-treated animals and appropriate vehicle treated groups were assessed according to the methods of Litchfield and Wilcoxon (1949)."}, "Male CD-1 mice": {"tested_on": "Male CD-1 mice", "assay": "Psychostimulant (amphetamine)-induced hyperactivity in mice", "settings": "AMPH 2 mg/kg i.p. + compound 10 mg/kg p.o. 30 min before; over 60 min; mean ± sem"}},
  "data": [
    {"smiles": "CC[C@H]1NC(=O)N(c2ccc(Oc3ccc(C)c(OC)c3)nc2)C1=O", "note": "[RE1, (5R)-5-ethyl-3-(6-{[4-methyl-3-(methyloxy)phenyl]oxy}-3-pyridinyl)-2,4-imidazolidinedione]", "values": [
      {"measurement": "increase in seizure threshold (% change in CC50)", "setting": "Male CD rats; 30 mg/kg p.o.", "value": 91, "unit": "%"},
      {"measurement": "increase in seizure threshold (% change in CC50)", "setting": "Male CD rats; 60 mg/kg p.o.", "value": 218, "unit": "%"},
      {"measurement": "Total Distance Travelled (cm)", "setting": "Male CD-1 mice", "value": "15267 ± 3166", "unit": "cm"}
    ]}
  ]
}
